Laboratory results from US8110570B2, “Modulators of acetyl-coenzyme A carboxylase and methods of use thereof” (Cropsolution, Inc., priority 2008, dated 2012).

What was measured:
[1] = biological target: T1, hACC1 (Homo sapiens, UniProt Q13085); test: [14C]bicarbonate incorporation assay, overall ACC activity; format: biochemical; settings: recombinant hACC1, overall ACC activity
T1 construct: PCR primers were designed for full-length hACC1 and hACC2 using GenBank submissions AY237919 and AJ575592, respectively; His tag (C); made in house; host or cells: baculovirus, Sf9 insect cells
Description: (§1) In vitro IC50 values of human ACC were determined using recombinant enzyme produced by standard procedures. For example, full-length cDNAs for both the human isoforms (hACC1 and hACC2) were each cloned and expressed as a recombinant protein using a baculovirus system. Double stranded cDNA from human fetal liver (Quick-Clone cDNA, cat. #7171-1) was purchased from BD/Clontech (Mt. View, Calif.). PCR primers were designed for full-length hACC1 and hACC2 using GenBank submissions AY237919 and AJ575592, respectively. The Advantage GC 2 PCR kit (BD/Clontech) was used for amplification. The PCR products (about 7 Kb) were TOPO-cloned into the pCR4Blunt vector (Invitrogen, Carlsbad, Calif.), and 6 clones of each gene were isolated. […] Full length versions of the two cDNAs corresponding to their respective Genbank sequences were assembled in pBluescript SK+ (Stratagene, La Jolla, Calif.) by combining error-free fragments from the PCR clones. The resulting hACC1 clone, designated pCS35, has six silent nucleotide differences compared to Genbank accession AY237919. The final hACC2 clone, designated pCS36, has ten silent nucleotide differences compared to Genbank accession AJ575592. Primers were designed to PCR amplify the cDNAs along with the in-frame 3′-his tag sequences from the pET vector and TOPO-cloned the resulting products into the Gateway® entry vector pENTR/D-TOPO. The ACC2 primers were designed to delete amino acids 1-148 and add Met-Gly in front of Lys149 in the final product. The resulting entry clones were transferred to BaculoDirect™ linear DNA (Invitrogen corp.) using the Gateway® LR recombination reaction. The recombinant baculovirus DNA was transfected into insect cells and viral amplification was performed according to the manufacturer's protocols. For protein expression sf9 cells were infected with a P3 viral stock in the presence of 50 uM biotin. The cells were harvested after 48-72 hr, lysed by sonication, and the resulting extract was clarified by centrifugation. ACC in the crude extract was concentrated by ammonium sulfate precipitation (40% w/v) and purified by Ni^2+-NTA chromatography (Novagen) followed by anion exchange chromatography on a UNO-Q column (BioRad).
(§2) Overall ACC activity in the hACC preparations is measured by following incorporation of [^14C]bicarbonate into […] essentially as described (Thumpy and Wakil, J Biol Chem 260, 6318-6323 (1985). Briefly, the reaction mixture (50 μL) contains: 50 mM Hepes (pH7.4), 20 mM K-Citrate, 20 mM Mg-Acetate 1.5 mM MgSO4, 2 mM DTT, 2 mM acetyl-CoA, 12 mM NaHCO3, 0.2 mM NaH^14CO3 (˜50 mCi/mmol), 0.01% (v/v) Triton X-100, 0.75 mg/mL BSA, 1% (v/v) DMSO (with or without inhibitor), and 0.3 μg (hACC1) or 0.15 μg (hACC2) enzyme. Reactions are initiated by the addition of ATP to a final concentration 2 mM. After 10 minutes at 37° C., the reaction is stopped by the addition of 2N HCl (50 μL). The samples are evaporated in a hood overnight, resuspended in H2O (200 μL), and incorporated label is quantified by scintillation counting in scintillation cocktail (3 mL). Inhibition data are fit to dose-response curves and IC50 values are reported (i.e. the concentration of inhibitor that gives 50% inhibition).

[2] = biological target: T2, hACC2 (Homo sapiens, UniProt O00763); test: as above; format: biochemical; settings: recombinant hACC2, overall ACC activity
T2 construct: delete amino acids 1-148 and add Met-Gly in front of Lys149 in the final product; His tag (C); made in house; host or cells: baculovirus, Sf9 insect cells
T2 sequence (O00763 149-2458 limits assumed): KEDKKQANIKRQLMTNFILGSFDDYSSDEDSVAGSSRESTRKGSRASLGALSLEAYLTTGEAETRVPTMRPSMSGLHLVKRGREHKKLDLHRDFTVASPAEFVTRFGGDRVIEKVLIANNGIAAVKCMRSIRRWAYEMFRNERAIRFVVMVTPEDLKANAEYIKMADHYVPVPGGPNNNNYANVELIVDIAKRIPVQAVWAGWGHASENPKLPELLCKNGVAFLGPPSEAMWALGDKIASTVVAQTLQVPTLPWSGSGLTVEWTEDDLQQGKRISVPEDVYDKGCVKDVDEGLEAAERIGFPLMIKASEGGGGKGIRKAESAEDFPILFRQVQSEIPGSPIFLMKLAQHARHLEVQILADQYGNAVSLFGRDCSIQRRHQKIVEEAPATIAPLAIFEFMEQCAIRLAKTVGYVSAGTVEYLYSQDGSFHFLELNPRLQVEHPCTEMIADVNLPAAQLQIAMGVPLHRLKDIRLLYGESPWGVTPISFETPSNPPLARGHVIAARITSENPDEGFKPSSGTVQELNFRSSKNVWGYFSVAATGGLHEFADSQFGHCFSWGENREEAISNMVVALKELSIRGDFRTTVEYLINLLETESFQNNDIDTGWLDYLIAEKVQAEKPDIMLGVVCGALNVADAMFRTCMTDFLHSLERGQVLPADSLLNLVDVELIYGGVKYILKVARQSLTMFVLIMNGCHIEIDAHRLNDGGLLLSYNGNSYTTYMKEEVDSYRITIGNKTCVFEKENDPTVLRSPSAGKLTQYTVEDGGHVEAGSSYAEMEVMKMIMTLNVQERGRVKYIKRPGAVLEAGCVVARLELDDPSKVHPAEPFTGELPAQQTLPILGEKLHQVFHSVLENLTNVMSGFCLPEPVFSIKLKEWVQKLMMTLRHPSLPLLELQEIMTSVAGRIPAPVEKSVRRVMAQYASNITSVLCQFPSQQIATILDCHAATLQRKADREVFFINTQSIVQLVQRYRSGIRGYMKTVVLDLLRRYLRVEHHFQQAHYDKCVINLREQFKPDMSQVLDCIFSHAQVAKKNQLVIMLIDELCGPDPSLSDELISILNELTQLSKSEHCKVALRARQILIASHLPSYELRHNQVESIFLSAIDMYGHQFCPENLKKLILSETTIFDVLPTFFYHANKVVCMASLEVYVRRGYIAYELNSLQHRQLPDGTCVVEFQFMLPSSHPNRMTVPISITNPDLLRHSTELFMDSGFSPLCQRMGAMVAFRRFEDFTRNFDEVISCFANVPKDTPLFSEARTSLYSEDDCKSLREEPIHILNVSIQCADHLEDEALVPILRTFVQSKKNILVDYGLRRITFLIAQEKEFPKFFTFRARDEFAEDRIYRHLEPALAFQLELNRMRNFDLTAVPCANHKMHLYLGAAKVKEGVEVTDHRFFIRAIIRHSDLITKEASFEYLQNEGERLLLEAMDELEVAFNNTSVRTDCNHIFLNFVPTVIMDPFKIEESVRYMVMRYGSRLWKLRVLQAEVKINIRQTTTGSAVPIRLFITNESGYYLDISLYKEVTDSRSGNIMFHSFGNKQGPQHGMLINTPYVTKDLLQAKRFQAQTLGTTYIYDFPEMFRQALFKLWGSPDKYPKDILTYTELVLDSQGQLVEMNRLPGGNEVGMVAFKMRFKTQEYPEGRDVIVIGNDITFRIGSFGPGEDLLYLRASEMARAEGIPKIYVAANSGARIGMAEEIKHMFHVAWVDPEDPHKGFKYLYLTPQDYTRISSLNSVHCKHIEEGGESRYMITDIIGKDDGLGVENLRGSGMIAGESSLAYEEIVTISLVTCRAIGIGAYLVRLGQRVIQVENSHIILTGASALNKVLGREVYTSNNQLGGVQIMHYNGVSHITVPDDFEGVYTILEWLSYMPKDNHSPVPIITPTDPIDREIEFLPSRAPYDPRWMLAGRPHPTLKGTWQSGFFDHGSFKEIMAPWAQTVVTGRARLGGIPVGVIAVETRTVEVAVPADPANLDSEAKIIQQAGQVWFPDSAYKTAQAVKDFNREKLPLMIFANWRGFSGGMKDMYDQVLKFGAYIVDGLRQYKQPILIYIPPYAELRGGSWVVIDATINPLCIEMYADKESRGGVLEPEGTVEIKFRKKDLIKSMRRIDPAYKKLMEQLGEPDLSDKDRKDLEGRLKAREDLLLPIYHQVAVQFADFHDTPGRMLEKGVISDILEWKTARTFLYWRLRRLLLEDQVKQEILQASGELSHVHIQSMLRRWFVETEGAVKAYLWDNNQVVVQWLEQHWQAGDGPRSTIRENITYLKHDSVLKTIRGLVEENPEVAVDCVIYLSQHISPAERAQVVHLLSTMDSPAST
Description: as §1, §2

IC50 [1] [nM] | IC50 [2] [nM] | Compound
30 | 27 | COc1cc(C(=O)N2CCC3(CC2)NC(=O)c2cc(C)c(C)cc2O3)nc2c(SC)cccc12 [Compound 154]
5 | 4 | COc1cc(C(=O)N2CCC3(CC2)NC(=O)c2cc(C)c(C)cc2O3)cc2c(OC)cccc12 [Compound 155, 1′-[(4,8-Dimethoxynaphth-2-yl)carbonyl]-6,7-dimethylspiro[2H-1,3-benzoxazin-2,4′-piperidin]-4-(3H)-one]
1000 | 490 | COc1cc(C(=O)N2CCC3(CC2)NC(=O)c2cc(Br)ccc2N3)nc2c(OC)cccc12 [Compound 71, 6′-Bromo-1-[(4,8-dimethoxyquinoline-2-yl)carbonyl]spiro[piperidine-4,2′(1′H)-quinazolin]-4′-(3′H)-one]
160 |  | COc1cc(C(=O)N2CCC3(CC2)NC(=O)c2cc(C)ccc2N3)cc2c(OC)cccc12 [Compound 192]
190 |  | COc1cc2c(cc1OC)C(=O)NC1(CCN(C(=O)c3cc(OC)c4cccc(OC)c4n3)CC1)N2 [Compound 191]
70 |  | COc1cc(C(=O)N2CCC3(CC2)NC(=O)c2cc(OC(F)(F)F)ccc2N3)cc2c(OC)cccc12 [Compound 194]
4700 |  | COc1cc(C(=O)N2CCC3(CC2)NC(=O)c2cc(Br)ccc2O3)nc2c(C(C)C)cccc12 [Compound 134]
180 | 110 | COc1cc(C(=O)N2CCC3(CC2)NC(=O)c2cc(Br)ccc2O3)nc2c(C3CC3)cccc12 [Compound 32]
100 | 77 | COc1cccc2c(C)c(C(=O)N3CCC4(CC3)NC(=O)c3cc(NC(C)=O)ccc3O4)[nH]c12 [Compound 24]
1200 | 880 | COc1cc2c(OC)cccc2cc1C(=O)N1CCC2(CC1)Oc1ccc(Br)cc1C(=O)N2C [Compound 138, 6-Bromo-1′-[(3,5-dimethoxynaphth-2-yl)carbonyl]-3-methylspiro[2H-1,3-benzoxazin-2,4′-piperidin]-4-(3H)-one]
62 |  | COc1cc2c(cc1OC)C(=O)NC1(CCN(C(=O)c3cc(OC)c4cccc(OC)c4c3)CC1)N2 [Compound 190]
90 | 83 | COc1ccc(OC)c2c1cc(C(=O)N1CCC3(CC1)NC(=O)c1cc(OC(C)C)ccc1O3)n2C [Compound 185]
4 | 5 | COc1cc(C(=O)N2CCC3(CC2)NC(=O)c2cc4ccccc4cc2O3)nc2c(OC)cccc12 [Compound 159]
2200 |  | COc1cc(C(=O)N2CCC3(CC2)NC(=O)c2cc(Br)ccc2O3)c(OC)c2ccccc12 [Compound 135, 6-Bromo-1′-[(1,4-dimethoxynaphth-2-yl)carbonyl]spiro[2H-1,3-benzoxazin-2,4′-piperidin]-4-(3H)-one]
14 |  | COc1cc(C(=O)N2CCC3(CC2)NC(=O)c2cc(C(C)C)ccc2O3)cc2c(OC)cccc12 [Compound 178]
35 | 16 | COc1cc(C(=O)N2CCC3(CC2)NC(=O)c2cc(C)c(C)cc2O3)nc2c(OC)cccc12 [Compound 153]
4 | 3 | COc1cc(C(=O)N2CCC3(CC2)NC(=O)c2cc4ccccc4cc2O3)cc2c(OC)cccc12 [Compound 160]
6 |  | COc1cc(C(=O)N2CCC3(CC2)NC(=O)c2cc(OC(F)(F)F)ccc2O3)cc2c(OC)cccc12 [Compound 173]
36 | 31 | COc1ccc2cc3c(cc2c1)C(=O)NC1(CCN(C(=O)c2[nH]c4c(OC)cccc4c2C)CC1)O3 [Compound 166, 7-Methoxy-1′-[[7-methoxy-3-methyl-1H-indol-2-yl)carbonyl]spiro[2H-naphtho[2,3-e]-1,3-oxazin-2,4′-piperidin]-4-(3H)-one]
35 | 25 | CCOc1ccc2c(c1)C(=O)NC1(CCN(C(=O)c3cc(OC)c4cccc(SC)c4n3)CC1)O2 [Compound 149]

IC50 [1] [nM] | IC50 [2] [nM] | Compound
260 | 200 | COc1ccc(OC)c2[nH]c(C(=O)N3CCC4(CC3)NC(=O)c3cc(Br)ccc3O4)cc12 [Compound 16]
5 |  | COc1ccc2cc3c(cc2c1)C(=O)NC1(CCN(C(=O)c2cc(OC)c4cccc(OC)c4c2)CC1)O3 [Compound 162]
830 | 590 | COc1ccc(OC)c2c1cc(C(=O)N1CCC3(CC1)NC(=O)c1cc(Br)ccc1O3)n2C [Compound 26]
160 |  | COc1ccc2c(c1)C(=O)NC1(CCN(C(=O)c3cc4c(OC)ccc(OC)c4[nH]3)CC1)O2 [Compound 182]
600 | 2900 | O=C1NC2(CCN(C(=O)c3ccc4[nH]cnc4c3)CC2)Oc2ccc(Br)cc21 [Compound 109, 1′-[(1H-benzimidazol-5-yl)carbonyl]-6-bromospiro[2H-1,3-benzoxazin-2,4′-piperidin]-4-(3H)-one]
4 |  | COc1cc(C(=O)N2CCC3(CC2)NC(=O)c2cc(N4CCOCC4)ccc2O3)cc2c(OC)cccc12 [Compound 197]
 | 900 | COc1cc(C(=O)N2CCC3(CC2)NC(=O)c2cc(Br)ccc2O3)nc2ccccc12 [Compound 40]
500 |  | COc1cc(C(=O)N2CCC3(CC2)NC(=O)c2cc(OC(F)(F)F)ccc2N3)nc2c(OC)cccc12 [Compound 195]
 | 1300 | Cn1nccc1-c1cccc(C(=O)N2CCC3(CC2)NC(=O)c2cc(Br)ccc2O3)c1 [Compound 141, 6-Bromo-1′-[3-(1-methyl-1H-pyrazol-5-yl)benzoyl]spiro[2H-1,3-benzoxazin-2,4′-piperidin]-4-(3H)-one]
 | 8 | COc1cc(C(=O)N2CCC3(CC2)NC(=O)c2cc4ccccc4cc2O3)nc2c(SC)cccc12 [Compound 158]
21 |  | COc1cc(C(=O)N2CCC3(CC2)NC(=O)c2cc(OC(F)(F)F)ccc2O3)cc2c(SC)cccc12 [Compound 175]
500 |  | COc1ccc2c(c1)C(=O)NC1(CCN(C(=O)c3[nH]c4c(OC)cccc4c3C)CC1)N2 [Compound 189, 6′-Methoxy-1-[[7-methoxy-3-methyl-1H-indol-2-yl)carbonyl]spiro-[piperidine-4,2′(1′H)-quinazolin]-4′-(3′H)-one]
8 |  | COc1cccc2c(C)c(C(=O)N3CCC4(CC3)NC(=O)c3cc5ccccc5cc3O4)[nH]c12 [Compound 161, 1′-[[7-Methoxy-3-methyl-1H-indol-2-yl)carbonyl]spiro[2H-naphtho[2,3-e]-1,3-oxazin-2,4′-piperidin]-4-(3H)-one]
420 |  | COc1ccc2c(c1)C(=O)NC1(CCN(C(=O)c3cc4c(OC)ccc(OC)c4n3C)CC1)O2 [Compound 181]
5 |  | COc1ccc2c(c1)C(=O)NC1(CCN(C(=O)c3cc(OC)c4cccc(SC)c4c3)CC1)O2 [Compound 177]
5 |  | CCOc1ccc2c(c1)C(=O)NC1(CCN(C(=O)c3cc(OC)c4cccc(SC)c4c3)CC1)O2 [Compound 176]
430 |  | COc1cccc2c(C)c(C(=O)N3CCC4(CC3)NC(=O)c3cc(N)ccc3O4)[nH]c12 [Compound 183]
38 |  | COc1cc(C(=O)N2CCC3(CC2)NC(=O)c2cc(C(C)C)ccc2O3)cc2c(SC)cccc12 [Compound 179]
6 |  | COc1cc(C(=O)N2CCC3(CC2)NC(=O)c2cc(OC(C)C)ccc2O3)cc2c(OC)cccc12 [Compound 170]
